Where two headings read alike, the source gives them in different places.
Experiments:
[1] = Experimental: 0.2 mL of H460 tumor cell suspension (1×10^7 cells) is injected subcutaneously in the right flank of 9-week old female nu/nu (nude) mice (Harlan Laboratories, Indianapolis, Ind.) having a body weight (BW) range of 18.1-26.9 g on Day 1 of the study. Tumors are monitored twice weekly and then daily as their mean volume approaches 100-150 mm^3. Ten days after implantation, the mice are sorted into 11 groups of eight mice having individual tumor sizes of 75-196 mm^3 and a group mean tumor size of 119-122 mm^3. Tumor volume in mm^3 is determined using the formula [(width)^2×(length)]/2, where width width of the tumor in mm and length length of the tumor in mm. Tumor weight can be estimated with the assumption that 1 mg is equivalent to 1 mm^3 of tumor volume.
(§1) The 11 groups of nude mice are treated as follows. One group of eight mice serves as Controls (C or Control) for all analyses and is administered intraperitoneally (i.p.) 50 mM sodium acetate at pH 4 (Vehicle 1) and then administered by oral gavage (p.o.) a composition comprising 10% N-methylpyrrolidone 90% polyethylene glycol 300 (PEG300) (Vehicle 2). […] Metformin is dissolved in 50 mM sodium acetate at pH 4 for dosing.
(§2) Compound A is stored at −20° C. Compound C is stored at −20° C. protected from light. Stock solutions (10×) in 100% N-rnethylpyrrolidone (NMP) are prepared every five days, aliquotted, and stored in the dark at room temperature. On each treatment day, stock solution aliquots are diluted with polyethylene glycol (PEG300) to provide the formulated drug (Compound A or Compound C) in 10% NMP: 90% PEG300. Dosing solutions are protected from light, and the formulated drug is administered within 1 hour after preparation.
For combination therapies, Compound A or Compound C are administered by oral gavage (p.o.) within 30 minutes after the intraperitoneal (i.p.) administration of metformin, except on Day 20 when Compound A or Compound C is given immediately after metformin.
(§3) Paclitaxel (Natural Pharmaceuticals, Inc., Beverly, Mass., USA) is administered by bolus tail-vein injections (i.v.) once daily on alternate days for five doses. Paclitaxel is dissolved in 50% ethanol and 50% Crernophor® EL to prepare a 10× stock solution stored at room temperature. On each day of dosing, an aliquot of the paclitaxel stock solution is diluted with 5% dextrose in water to yield a dosing solution containing 5% ethanol and 5% Cremophor® EL.
In all groups, the dosing volume of 10 mL/kg (0.2 mL/20 g mouse) is scaled to the weight of each animal as determined on the day of dosing, except on weekends when the previous BW is carried fontvard.

[2] = system: H520 non-small cell lung tumors; test: H520 xenograft 20-day tumor growth inhibition assay; type: in vivo, nude mice; details: for Mean Tumor Vol. Change / Regression / T/C: Day 20
Experimental: EGFR-null H520 human non-small cell lung cancer (NSCLC) cells are treated with different doses of 2-Methyl-2-[4-(3-methyl-2-oxo-8-quinolin-3-yl-2, 3-dihydro-imidazo[4,5-c]quinolin-1-yl)-phenyl]-propionitrile monotosylate salt (also known as COMPOUND A) or 5-(2,6-di-morpholin-4-yl-pyrimidin-4-yl)-4-trifluoromethyl-pyridin-2-ylamine hydrochloride salt (also known as COMPOUND C), a single dose of metformin or both agents in combination, The H520 human NSCLC cells (NCl-H520, ATCC-HTB-182, available from American Type Culture Collection, Rockville, Md. US) are isolated from a sample of a lung mass taken from a patient with squamous cell carcinoma of the lung (Banks-Schlegel et at Cancer Res, 45(3): 1187-1197 (1985).
H520 tumor cells are grown in RPMI 1640 medium containing 100 units/mL penicillin G sodium, 100 μg/ML streptomycin sulfate, and 25 µg/mL gentamicin. The medium is supplemented with 10% fetal bovine serum, 2 mM glutamine, and 1 mM sodium pyruvate, and buffered with 10 mM HEPES and 0.075% sodium bicarbonate. The cells are cultured in tissue culture flasks in a humidified incubator at 37° C., in an atmosphere of 5% CO2 and 95% air. The cells are harvested for injection into 8-week old female nu/nu (nude) mice (Harlan Laboratories, Indianapolis, Ind.) by detaching the monolayers with 1× trypsin and resuspending at 5×10^7cells/mL in phosphate-buffered saline containing 50% Matrigel.
0.2 mL of H520 tumor cell suspension (1×10^7 cells) is injected subcutaneously in the right flank of 8-week old female nu/nu (nude) mice (Harlan Laboratories, Indianapolis, Ind.) having a body weight (BW) range of 18.1-26.9 g on Day 1 of the study. Tumors are monitored twice weekly and then daily as their mean volume approaches 120-180 mm^3. […] Tumor weight can be estimated with the assumption that 1 mg is equivalent to 1 mrn^3 of tumor volume.
as §1, with “N-methylpyrrolidone:” for “N-methylpyrrolidone”, “(PEG 300)” for “(PEG300)”, “dosing,” for “dosing.”
as §2, with “Compound” for “Compound A is stored at −20° C. Compound”, “N-methylpyrrolidone” for “N-rnethylpyrrolidone”, “PEG300,” for “PEG300.”, “light” for “light,”
For combination therapies, Compound A or Compound C is administered by oral gavage (p.o.) within 30 minutes after the intraperitoneal (i.p.) administration of metformin, except on Day 20 when Compound A or Compound C is given immediately after metformin.
as §3, with “Cremophor®” for “Crernophor®”, “pad itaxel” for “paclitaxel”
Statistical and graphical analyses was conducted by determining the difference in tumor volume between Day 1 (the start of dosing) and the endpoint day for each animal that remained on study on Day 20. Antitumor activity is expressed as % T/C (comparing the mean tumor volume change between the endpoint day and Day 1 for the treatment group to the Control). A T/C≦40% is classified as potential therapeutically active.

[3] = Compound A 41.1 mg/kg p.o., 1x daily
[4] = Compound A 68.5 mg/kg p.o., 1x daily
[5] = Compound C 32.7 mg/kg p.o., 1x daily
[6] = Compound C 54.4 mg/kg p.o., 1x daily until day 7 (stopped due to toxicity)
[7] = Metformin 192.3 mg/kg i.p., 1x daily
[8] = Paclitaxel 30 mg/kg i.v., 1x on alternate days for 5 doses

In the case of `Cn1c(=O)n(-c2ccc(C(C)(C)C#N)cc2)c2c3cc(-c4cnc5ccccc5c4)ccc3ncc21` [Compound A, 2-Methyl-2-[4-(3-methyl-2-oxo-8-quinolin-3-yl-2,3-dihydro-imidazo[4,5-c]quinolin-1-yl)-phenyl]-propionitrile], the Dead/Total ([1]; female, nu/nu (nude), mouse, in vivo, po, 41.1 mg/kg) is reported as 0/8, the Dead/Total ([1]; female, nu/nu (nude), mouse, in vivo, po, 68.5 mg/kg) is reported as 0/8 and the “Mean Tumor Vol. Change” value [2, 3] is reported as 598 mm^3. For the same compound, the Regression [2, 3] was “None”, the T/C [2, 3] was 60% (ns^†) and the “Mean Tumor Vol. Change” value [2, 4] was 466 mm^3. The Regression [2, 4] was “None” and the T/C [2, 4] was 47% (ns^†).
With `Nc1cc(C(F)(F)F)c(-c2cc(N3CCOCC3)nc(N3CCOCC3)n2)cn1` [Compound C, 5-(2,6-di-morpholin-4-yl-pyrimidin-4-yl)-4-trifluoromethyl-pyridin-2-ylamine] the “Mean Tumor Vol. Change” value [2, 5] was 542 mm^3, the Regression [2, 5] was “None” and the T/C [2, 5] was 54% (ns^†). For the same compound, the “Mean Tumor Vol. Change” value [2, 6] was 475 mm^3, the Regression [2, 6] was “None” and the T/C ([2]; Compound C 54.4 mg/kg p.o., 1x daily until day 7 (stopped due to toxicity), not evaluable (ne)) was 48% (ne).
In the case of `CN(C)C(=N)N=C(N)N` [Metformin, dimethyldiguanide, reference compound], the Dead/Total [1, 7] is reported as 0/8, the “Mean Tumor Vol. Change” value [2, 7] is reported as 1003 mm^3 and the Regression [2, 7] is reported as “None”. For the same compound, the T/C [2, 7] was 101% (ns^†) and the “modulation of tumor growth in the 20-day tumor growth inhibition assay” value ([2]; metformin monotherapy at 192.3 mg/kg) was “did not appear to modulate tumor growth”.
For `CC(=O)O[C@H]1C(=O)[C@@]2(C)[C@H]([C@H](OC(=O)c3ccccc3)[C@]3(O)C[C@H](OC(=O)[C@H](O)[C@@H](NC(=O)c4ccccc4)c4ccccc4)C(C)=C1C3(C)C)[C@]1(OC(C)=O)CO[C@@H]1C[C@@H]2O` [Paclitaxel, reference compound], the Dead/Total [1, 8] was 0/8, the “Mean Tumor Vol. Change” value [2, 8] was 53 mm^3 and the Regression [2, 8] was “None”. The T/C [2, 8] was 5% and the T/C ([2]; Paclitaxel 30 mg/kg i.v., 1x on alternate days for 5 doses, listed as paclitaxel) was 5%.
